Data taken from patent publication US12410208B2, “(2-acetamidyl)thio-beta-D-galactopyranoside derivatives” (Idorsia Pharmaceuticals Ltd, priority 2020, dated 2025).
Like-named read-outs stand apart in the source and are kept apart here.

Legend:
[1] = target: biotinylated human Gal-3 (hGal-3) (Homo sapiens, UniProt P17931); test: Competitive binding assay: biotinylated hGal-3 binding to microplate-adsorbed asialofetuin (ASF), spectrophotometric
Method in brief: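 Competitive binding of biotinylated hGal-3 to plate-adsorbed asialofetuin was measured with serially diluted compounds over 3 h at 4° C. Bound protein was detected with streptavidin-peroxidase and ABTS substrate by absorbance. IC50 values are means of several measurements.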

human Gal-1 (hGal-1) = human Gal-1 (hGal-1) (Homo sapiens, UniProt P09382); test: Competitive binding assay: biotinylated hGal-1 binding to microplate-adsorbed asialofetuin (ASF), spectrophotometric; details: hGal-1 binding to asialofetuin; Table 15; R and S epimers of selected Examples also listed; read-out: IC50 (Galectin-1 inhibition)
Method in brief: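 Biotinylated hGal-1 (300-1000 ng/mL) incubated with compound on asialofetuin-coated plates 3 hours at 4 °C, washed, then streptavidin-peroxidase (80 ng/mL) 1 hour at 4 °C. ABTS substrate read spectrophotometrically; IC50 reported as mean of several measurements.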

[2] = Gal-3 inhibition, Table 5, read-out: IC50
[3] = Table 11, hGal-3, read-out: IC50 (Gal-3 inhibition)
[4] = Table 12, hGal-3, read-out: IC50 (Gal-3 inhibition)

Chain of biotinylated human Gal-3 (hGal-3) (P17931 whole entry): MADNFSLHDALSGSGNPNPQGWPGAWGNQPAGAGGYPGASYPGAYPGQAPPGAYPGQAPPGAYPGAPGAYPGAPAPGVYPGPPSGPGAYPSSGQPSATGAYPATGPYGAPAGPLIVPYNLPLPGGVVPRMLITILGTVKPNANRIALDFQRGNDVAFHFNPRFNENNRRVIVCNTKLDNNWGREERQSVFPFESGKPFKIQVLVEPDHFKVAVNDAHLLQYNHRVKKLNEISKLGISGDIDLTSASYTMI
Chain of human Gal-1 (hGal-1) (P09382 whole entry): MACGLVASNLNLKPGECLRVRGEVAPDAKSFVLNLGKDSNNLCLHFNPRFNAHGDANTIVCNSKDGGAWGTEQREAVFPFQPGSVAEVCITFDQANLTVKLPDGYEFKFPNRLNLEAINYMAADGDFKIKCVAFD

| IC50 [1, 2] [nM] | IC50 (human Gal-1 (hGal-1)) [nM] | Compound | other results |
| --- | --- | --- | --- |
| 30 | 60 | CN(C(=O)C(S[C@@H]1O[C@H](CO)[C@H](O)[C@H](n2cc(-c3cc(F)c(F)c(F)c3)nn2)[C@H]1O)C1(O)CCC(F)(F)CC1)C1CC1 (stereo partly drawn) [Example 2.44.221., N-Cyclopropyl-2-(4,4-difluoro-1-hydroxycyclohexyl)-2-(((2S,3R,4S,5R,6R)-3,5-dihydroxy-6-(hydroxymethyl)-4-(4-(3,4,5-trifluorophenyl)-1H-1,2,3-triazol-1-yl)tetrahydro-2H-pyran-2-yl)thio)-N-methylacetamide] | – |
| 310 | 160 | CN(CC(C)(C)C)C(=O)C(S[C@@H]1O[C@H](CO)[C@H](O)[C@H](n2cc(-c3cc(F)c(F)c(F)c3)nn2)[C@H]1O)C1(O)CCC1 (stereo partly drawn) [Example 2.34.228., 2-(((2S,3R,4S,5R,6R)-3,5-Dihydroxy-6-(hydroxymethyl)-4-(4-(3,4,5-trifluorophenyl)-1H-1,2,3-triazol-1-yl)tetrahydro-2H-pyran-2-yl)thio)-2-(1-hydroxycyclobutyl)-N-methyl-N-neopentylacetamide] | – |
| – | 80 | CCN(C)C(=O)C(S[C@@H]1O[C@H](CO)[C@H](O)[C@H](n2cc(-c3cc(F)c(F)c(Cl)c3)nn2)[C@H]1O)C1(O)CCOCC1 (stereo partly drawn) [Example 15.41.203., 2-(((2S,3R,4S,5R,6R)-4-(4-(3-Chloro-4,5-difluorophenyl)-1H-1,2,3-triazol-1-yl)-3,5-dihydroxy-6-(hydroxymethyl)tetrahydro-2H-pyran-2-yl)thio)-N-ethyl-2-(4-hydroxytetrahydro-2H-pyran-4-yl)-N-methylacetamide] | IC50 [1, 3]: 60 nM |
| – | 5940 | O=C(C(S[C@@H]1O[C@H](CO)[C@H](O)[C@H](n2cc(-c3cc(F)c(F)c(F)c3)nn2)[C@H]1O)C(O)Cc1ccccc1)N1CCC1 (stereo partly drawn) [Example 2.64.206., 1-(Azetidin-1-yl)-2-(((2S,3R,4S,5R,6R)-3,5-dihydroxy-6-(hydroxymethyl)-4-(4-(3,4,5-trifluorophenyl)-1H-1,2,3-triazol-1-yl)tetrahydro-2H-pyran-2-yl)thio)-3-hydroxy-4-phenylbutan-1-one] | IC50 ([1]; Gal-3 inhibition, Table 7, read-out: IC50): 710 nM |
| 1450 | 4200 | CCN(C)C(=O)[C@H](S[C@@H]1O[C@H](CO)[C@H](O)[C@H](n2cc(-c3cc(F)c(F)c(F)c3)nn2)[C@H]1O)C1(O)CC(F)(F)C1 [Example 2.33.203R., (R)-2-(3,3-Difluoro-1-hydroxycyclobutyl)-2-(((2S,3R,4S,5R,6R)-3,5-dihydroxy-6-(hydroxymethyl)-4-(4-(3,4,5-trifluorophenyl)-1H-1,2,3-triazol-1-yl)tetrahydro-2H-pyran-2-yl)thio)-N-ethyl-N-methylacetamide] | – |
| – | 30 | CCN(C(=O)[C@@H](S[C@@H]1O[C@H](CO)[C@H](O)[C@H](n2cc(-c3cc(F)c(F)c(F)c3)nn2)[C@H]1OC)C1(O)CCC(F)(F)CC1)C1CC1 [Example 2.44.238S.I.] | IC50 ([1]; Table 10, hGal-3, read-out: IC50 (Gal-3 inhibition)): 20 nM |
| 50 | 40 | CN(CC1CC1)C(=O)[C@@H](S[C@@H]1O[C@H](CO)[C@H](O)[C@H](n2cc(-c3cc(F)c(F)c(F)c3)nn2)[C@H]1O)C1(O)CCC(F)(F)CC1 [Example 2.44.218S., (S)-N-(Cyclopropylmethyl)-2-(4,4-difluoro-1-hydroxycyclohexyl)-2-(((2S,3R,4S,5R,6R)-3,5-dihydroxy-6-(hydroxymethyl)-4-(4-(3,4,5-trifluorophenyl)-1H-1,2,3-triazol-1-yl)tetrahydro-2H-pyran-2-yl)thio)-N-methylacetamide] | – |
| 270 | 550 | CN(CC(F)(F)F)C(=O)[C@H](S[C@@H]1O[C@H](CO)[C@H](O)[C@H](n2cc(-c3cc(F)c(F)c(F)c3)nn2)[C@H]1O)C1(O)CCCCC1 [Example 2.39.219R., (R)-2-(((2S,3R,4S,5R,6R)-3,5-Dihydroxy-6-(hydroxymethyl)-4-(4-(3,4,5-trifluorophenyl)-1H-1,2,3-triazol-1-yl)tetrahydro-2H-pyran-2-yl)thio)-2-(1-hydroxycyclohexyl)-N-methyl-N-(2,2,2-trifluoroethyl)acetamide] | – |
| 70 | 80 | CN(CC1(F)CCCC1)C(=O)[C@@H](S[C@@H]1O[C@H](CO)[C@H](O)[C@H](n2cc(-c3cc(F)c(F)c(F)c3)nn2)[C@H]1O)C1(O)CCC(F)(F)CC1 [Example 2.44.223S., (S)-2-(4,4-Difluoro-1-hydroxycyclohexyl)-2-(((2S,3R,4S,5R,6R)-3,5-dihydroxy-6-(hydroxymethyl)-4-(4-(3,4,5-trifluorophenyl)-1H-1,2,3-triazol-1-yl)tetrahydro-2H-pyran-2-yl)thio)-N-((1-fluorocyclopentyl)methyl)-N-methylacetamide] | – |
| – | 270 | CCC(CC)NC(=O)C(S[C@@H]1O[C@H](CO)[C@H](O)[C@H](n2cc(-c3cc(F)c(F)c(F)c3)nn2)[C@H]1OC)C1(O)CCC(F)(F)CC1 (stereo partly drawn) [Example 2.44.250.I., 2-(4,4-Difluoro-1-hydroxycyclohexyl)-2-(((2S,3R,4S,5R,6R)-5-hydroxy-6-(hydroxymethyl)-3-methoxy-4-(4-(3,4,5-trifluorophenyl)-1H-1,2,3-triazol-1-yl)tetrahydro-2H-pyran-2-yl)thio)-N-(pentan-3-yl)acetamide] | IC50 [1, 4]: 50 nM |
| – | 800 | O=C([C@@H](S[C@@H]1O[C@H](CO)[C@H](O)[C@H](n2cc(-c3cc(F)c(F)c(F)c3)nn2)[C@H]1O)C1(O)CCOCC1)N1CCCCC1 [Example 2.41.208S., (S)-2-(((2S,3R,4S,5R,6R)-3,5-Dihydroxy-6-(hydroxymethyl)-4-(4-(3,4,5-trifluorophenyl)-1H-1,2,3-triazol-1-yl)tetrahydro-2H-pyran-2-yl)thio)-2-(4-hydroxytetrahydro-2H-pyran-4-yl)-1-(piperidin-1-yl)ethan-1-one] | IC50 ([1]; Gal-3 inhibition, Table 4, read-out: IC50): 20 nM |
| – | 30 | CCN(C)C(=O)C(S[C@@H]1O[C@H](CO)[C@H](O)[C@H](n2cc(-c3nc(Br)cs3)nn2)[C@H]1O)C1(O)CCOCC1 (stereo partly drawn) [Example 14.41.203., 2-(((2S,3R,4S,5R,6R)-4-(4-(4-Bromothiazol-2-yl)-1H-1,2,3-triazol-1-yl)-3,5-dihydroxy-6-(hydroxymethyl)tetrahydro-2H-pyran-2-yl)thio)-N-ethyl-2-(4-hydroxytetrahydro-2H-pyran-4-yl)-N-methylacetamide] | IC50 [1, 3]: 150 nM |
| 3580 | 28300 | CCN(C)C(=O)[C@H](S[C@@H]1O[C@H](CO)[C@H](O)[C@H](n2cc(-c3cc(F)c(F)c(F)c3)nn2)[C@H]1O)C1(O)CCC1 [Example 2.34.203R., (R)-2-(((2S,3R,4S,5R,6R)-3,5-Dihydroxy-6-(hydroxymethyl)-4-(4-(3,4,5-trifluorophenyl)-1H-1,2,3-triazol-1-yl)tetrahydro-2H-pyran-2-yl)thio)-N-ethyl-2-(1-hydroxycyclobutyl)-N-methylacetamide] | – |
| 1330 | 1710 | CN(C)C(=O)C(S[C@@H]1O[C@H](CO)[C@H](O)[C@H](n2cc(-c3cc(F)c(F)c(F)c3)nn2)[C@H]1O)C1(O)CCC(F)(F)CC1 (single isomer, unassigned) [Example 2.44.201R.] | – |
| – | 300 | CO[C@@H]1[C@@H](n2cc(-c3cc(F)c(F)c(F)c3)nn2)[C@@H](O)[C@@H](CO)O[C@H]1SC(C(=O)NCC(F)(F)F)C1(O)CCC(F)(F)CC1 (stereo partly drawn) [Example 2.44.254.I., 2-(4,4-Difluoro-1-hydroxycyclohexyl)-2-(((2S,3R,4S,5R,6R)-5-hydroxy-6-(hydroxymethyl)-3-methoxy-4-(4-(3,4,5-trifluorophenyl)-1H-1,2,3-triazol-1-yl)tetrahydro-2H-pyran-2-yl)thio)-N-(2,2,2-trifluoroethyl)acetamide] | IC50 [1, 4]: 130 nM |
| – | 210 | CO[C@@H]1[C@@H](n2cc(-c3cc(F)c(F)c(F)c3)nn2)[C@@H](O)[C@@H](CO)O[C@H]1SC(C(=O)N1CCC(C)(C)CC1)C1(O)CCC(F)(F)CC1 (stereo partly drawn) [Example 2.44.245.I., 2-(4,4-Difluoro-1-hydroxycyclohexyl)-1-(4,4-dimethylpiperidin-1-yl)-2-(((2S,3R,4S,5R,6R)-5-hydroxy-6-(hydroxymethyl)-3-methoxy-4-(4-(3,4,5-trifluorophenyl)-1H-1,2,3-triazol-1-yl)tetrahydro-2H-pyran-2-yl)thio)ethan-1-one] | IC50 [1, 4]: 90 nM |
| – | 220 | CN(CC1CC1)C(=O)C(S[C@@H]1O[C@H](CO)[C@H](O)[C@H](n2cc(-c3cc(F)c(F)c(F)c3)nn2)[C@H]1O)C(C)(C)O (stereo partly drawn) [Example 2.31.218., N-(Cyclopropylmethyl)-2-(((2S,3R,4S,5R,6R)-3,5-dihydroxy-6-(hydroxymethyl)-4-(4-(3,4,5-trifluorophenyl)-1H-1,2,3-triazol-1-yl)tetrahydro-2H-pyran-2-yl)thio)-3-hydroxy-N,3-dimethylbutanamide] | IC50 ([1]; Table 6, hGal-3, read-out: IC50 (Gal-3 inhibition)): 30 nM |
| 40 | 90 | CN(C(=O)[C@@H](S[C@@H]1O[C@H](CO)[C@H](O)[C@H](n2cc(-c3cc(F)c(F)c(F)c3)nn2)[C@H]1O)C1(O)CCOCC1)C1COC1 [Example 2.41.235S., (S)-2-(((2S,3R,4S,5R,6R)-3,5-Dihydroxy-6-(hydroxymethyl)-4-(4-(3,4,5-trifluorophenyl)-1H-1,2,3-triazol-1-yl)tetrahydro-2H-pyran-2-yl)thio)-2-(4-hydroxytetrahydro-2H-pyran-4-yl)-N-methyl-N-(oxetan-3-yl)acetamide] | – |
